For assay [1], the target named is T1, M1 muscarinic receptor (Homo sapiens, UniProt P11229).
T1 construct: expressed in transfected cells; host or cells: CHO (M1-CHO)
T1 sequence (P11229 1-460): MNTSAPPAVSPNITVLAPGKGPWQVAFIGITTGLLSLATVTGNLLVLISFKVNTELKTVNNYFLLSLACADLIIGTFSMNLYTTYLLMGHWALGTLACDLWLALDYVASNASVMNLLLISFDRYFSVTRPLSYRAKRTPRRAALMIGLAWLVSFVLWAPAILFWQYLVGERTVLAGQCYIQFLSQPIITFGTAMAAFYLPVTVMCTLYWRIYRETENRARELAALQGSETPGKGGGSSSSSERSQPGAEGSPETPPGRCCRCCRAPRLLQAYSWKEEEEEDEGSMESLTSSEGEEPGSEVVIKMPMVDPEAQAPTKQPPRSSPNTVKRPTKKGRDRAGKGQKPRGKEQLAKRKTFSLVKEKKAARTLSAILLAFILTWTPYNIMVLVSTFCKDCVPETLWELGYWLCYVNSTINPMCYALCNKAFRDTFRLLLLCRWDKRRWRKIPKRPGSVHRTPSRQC
The assay can be described thus: Functional mobilization of intracellular calcium (FLIPR), M1-CHO cells. It is filed as cell-based. The note with it: for Emax: 100% efficacy is the maximum response obtained using Carbachol as a control; for M1 Activity: M1-CHO cells, FLIPR calcium mobilization. How it is done:
(§1) Functional Mobilization of Intracellular Calcium to Determine Muscarinic Receptor Activity:
(§2) CHO cells expressing muscarinic receptors (M1 to M5) are grown as monolayers in tissue culture flasks at 37° C. in a humidified atmosphere containing 5% CO2 and passaged every 3-5 days. The growth media is Dulbecco's modified eagles medium (DMEM, Gibco Cat# 12430-054), containing 25 mM Hepes and supplemented with Fetal Bovine Serum (Hyclone, cat# SH30071.03), 0.1 mM of MEM non-essential amino acids (GIBCO, Cat# 11140-050), 1 mM MEM Sodium Pyruvate (GIBCO Cat# 11360-070) and 100 units/ml of Penicillin G and 100 μg/ml of Streptomycin (GIBCO Cat# 15140-122). The recombinant muscarinic receptor cell lines are grown under antibiotic pressure with media containing 25 μg/ml zeocin and 500 μg/ml G418 (M1-CHO), 4 μg/ml puromycin, 50 μg/ml zeocin and 2.5 μg/ml blasticidin (M2 and M4-CHO) or 50 μg/ml zeocin and 4 μg/ml puromycin (M3 and M5-CHO).
(§3) Cells are harvested at 80-90% confluence using Versene (GIBCO Cat# 15040-066), collected by centrifugation and seeded 18-24 hrs prior to running the calcium assay at a density of 5,000-10,000 cells/well in […], clear-bottomed 384-well plates (BD Biocoat, poly-D-lysine, Cat#356663). The day of the experiment, the cells are washed with a plate washer (Bioteck Instruments, ELX 405) using bath1 buffer (140-mM NaCl, 4.5-mM KCl, 2-mM CaCl2, 1-mM MgCl2, 10-mM Hepes-Na, 10-mM Glucose, pH 7.4, with NaOH) containing 1 mM Probenecid. Next, the calcium dye Fluo-3 (25 μl/well of Fluo-3 AM at 4 μM, Molecular Probes F-1241, in Bath 1 buffer containing 1 mM Probenecid) is added to the 25 μl of Bath 1 remaining in each well after the plate wash and the dye is loaded at 37° C. in the tissue culture incubator for 60-90 min. The fluorescent dye is removed using the plate washer with Bath 1 containing 1 mM Probenecid, leaving 25 μl/well of this solution after the wash. Alternatively, cells can be loaded with the calcium indicator from Molecular Devices (Calcium 3 Assay Reagents, Cat # R7181) adding 5 μl of a 5× solution dye in Bath 1 containing 1 mM Probenecid (10 ml per dye flask cat# R7182 to generate a solution 20×) to 20 μl of the same buffer. After loading for 60 min, the experiment can be run without having to remove the dye.
(§4) Compounds are prepared at a 2× fold concentration in a 96-well plate (round bottom, Costar Corning cat# 3656), by reconstituting the pre-spotted compounds in bath 1 containing 1 mM probenecid. The final concentration DMSO is 0.5%, and the amount of DMSO is normalized across the assay plate. To determine an agonist action of the compounds on muscarinic receptors, the reconstituted compounds are added (25 μl compound/well) to the cell assay plate (containing 25 μl/well) using the multi-channel robotic system of the FLIPR 3 Instrument (Molecular Devices, Sunnyvale, Calif.). To determine a functional inhibitory action of the compounds on muscarinic receptors, the reconstituted compounds are added (25 μl compound/well) to the assay plate and pre-incubated for 15 min prior to adding 25 μl of Carbachol at 3× the EC80 for each muscarinic subtype. Alternatively, the compounds can be co-applied simultaneously with the agonist. In both assay modes, the fluorescence is recorded for 60 sec (excitation wavelength is […] and emission wavelength 540 nm) using the FLIPR 3 instrument.
(§5) The potency, efficacy and selectivity of the muscarinic compounds were evaluated by screening the compound activity across the whole family (M1 to M5 cells). Compounds were also screened for activity on other proteins such as other GPCRs and ion channels to determine selectivity on M4 receptors.
On the technique in general: Calcium flux is commonly read through the fluorescence of an indicator in the cells.

For assay [2], the target named is T2, M4 muscarinic receptor (Homo sapiens, UniProt P08173).
T2 construct: expressed in transfected cells; host or cells: CHO (M4-CHO)
T2 sequence (P08173 1-479): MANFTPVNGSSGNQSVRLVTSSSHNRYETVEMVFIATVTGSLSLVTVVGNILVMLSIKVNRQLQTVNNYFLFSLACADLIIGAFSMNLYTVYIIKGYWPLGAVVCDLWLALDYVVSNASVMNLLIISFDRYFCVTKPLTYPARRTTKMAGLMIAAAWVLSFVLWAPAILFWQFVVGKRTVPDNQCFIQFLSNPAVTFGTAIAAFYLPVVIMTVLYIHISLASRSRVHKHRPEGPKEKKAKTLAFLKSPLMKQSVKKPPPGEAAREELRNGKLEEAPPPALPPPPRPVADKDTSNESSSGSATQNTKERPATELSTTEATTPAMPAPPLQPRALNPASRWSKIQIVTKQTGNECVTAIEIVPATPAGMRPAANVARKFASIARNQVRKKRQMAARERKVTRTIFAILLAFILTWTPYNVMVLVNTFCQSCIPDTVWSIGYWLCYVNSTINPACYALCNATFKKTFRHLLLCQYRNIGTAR
The assay can be described thus: Functional mobilization of intracellular calcium (FLIPR), M4-CHO cells. The note with it: for Emax: 100% efficacy is the maximum response obtained using Carbachol as a control; for M4 Activity: M4-CHO cells, FLIPR calcium mobilization. It is filed as cell-based. The protocol: as §1, §2, §3, §4, §5

A value given as a limit tells only on which side of the number the result lay.

In the case of `CCOC(=O)N1C2CCC1CC(N1CCC3(CC1)CN(S(=O)(=O)c1ccc(C)cc1)Cc1ccccc13)C2` (centres unmarked) [compound 18], in assay [1], the Emax (commonly the maximal effect, on the per cent scale that the assay sets) is 25 to 100% and the “M1 Activity” value is on record as “+++ (activity was measured to be less than 1.0 μM)”. For the same compound, in assay [2], the Emax fell in the range of 25 to 100% and the “M4 Activity” value is reported as “+++ (activity was measured to be less than 1.0 μM)”.
Take `O=C1OC2(CCN(C[C@H]3C[C@H]4C=C[C@H]3C4)CC2)c2ccc(Cl)cc21` [compound 19]: in assay [1], the maximal response (Emax) is 25 to 100% and the “M1 Activity” value is “++ (activity was measured to be from 1.0 μM to 5.0 μM)”. In assay [2], the maximal response (Emax) was less than 25% and the “M4 Activity” value is “++ (activity was measured to be from 1.0 μM to 5.0 μM)”.
Turning to `CCOC(=O)N1CCC(N2CCC3(CC2)c2ccccc2C(=O)N3Cc2ccccc2)CC1` [compound 20, ethyl 4-(2-benzyl-3-oxospiro[isoindoline-1,4′-piperidine]-1′-yl)piperidine-1-carboxylate], in assay [1], the maximum response (Emax) lay in the range of 25 to 100% and the “M1 Activity” value is listed as “++ (activity was measured to be from 1.0 μM to 5.0 μM)”. Further, in assay [2], the Emax is less than 25% and the “M4 Activity” value is listed as “+ (activity was measured to be greater than 5.0 μM)”.
With `CC(=O)N1Cc2ccccc2C2(CCN(C3CC4CCC(C4)C3)CC2)C1` (centres unmarked) [compound 21], in assay [1], the maximum response (Emax) was in the range of 25 to 100% and the “M1 Activity” value was “+ (activity was measured to be greater than 5.0 μM)”. In assay [2], the Emax is 25 to 100% and the “M4 Activity” value was “+ (activity was measured to be greater than 5.0 μM)”.
As to `CCOC(=O)N1CCC(CN2CCC3(CC2)CN(C(=O)OCCOC)Cc2ccccc23)CC1` [compound 22], in assay [1], the Emax is 25 to 100% and the “M1 Activity” value was “+++ (activity was measured to be less than 1.0 μM)”. For the same compound, in assay [2], the Emax was in the range of 25 to 100% and the “M4 Activity” value was “+++ (activity was measured to be less than 1.0 μM)”.
Consider `CCOC(=O)N1CCC(N2CCC3(CC2)CN(C(=O)OCCOC)Cc2ccccc23)CC1` [compound 23], for which, in assay [1], the maximal effect (Emax) fell in the range of 25 to 100% and the “M1 Activity” value is listed as “+++ (activity was measured to be less than 1.0 μM)”. In assay [2], the Emax was in the range of 25 to 100% and the “M4 Activity” value was “+++ (activity was measured to be less than 1.0 μM)”.
As for `CCCS(=O)(=O)N1Cc2ccccc2C2(CCN(C3CC4CCC(C3)N4C(=O)O[C@@H]3CCOC3)CC2)C1` (some centres unmarked) [compound 24], in assay [1], the maximum response (Emax) was 25 to 100% and the “M1 Activity” value is reported as “+++ (activity was measured to be less than 1.0 μM)”. Further, in assay [2], the Emax lay within 25 to 100% and the “M4 Activity” value is on record as “+++ (activity was measured to be less than 1.0 μM)”.
In the case of `CCOC(=O)N1CCC(N2CCC3(CC2)CN(S(=O)(=O)c2c(C)noc2C)Cc2ccccc23)CC1` [compound 25], in assay [1], the maximum response (Emax) lay in the range of 25 to 100% and the “M1 Activity” value is on record as “+++ (activity was measured to be less than 1.0 μM)”. For the same compound, in assay [2], the Emax was in the range of 25 to 100% and the “M4 Activity” value is listed as “+++ (activity was measured to be less than 1.0 μM)”.
Take `CCOC(=O)N1C2CCC1CC(N1CCC3(CC1)CN(C(=O)OC1CCC1)Cc1ccccc13)C2` (centres unmarked) [compound 27]: in assay [1], the maximal effect (Emax) was 25 to 100% and the “M1 Activity” value was “+++ (activity was measured to be less than 1.0 μM)”. For the same compound, in assay [2], the Emax was in the range of 25 to 100% and the “M4 Activity” value is “+++ (activity was measured to be less than 1.0 μM)”.
In the case of `CC(=O)N1Cc2ccccc2C2(CCN(C3CCN(C(=O)O[C@@H]4CCOC4)CC3)CC2)C1` [compound 32], in assay [1], the maximal effect (Emax) is 25 to 100% and the “M1 Activity” value is listed as “+++ (activity was measured to be less than 1.0 μM)”. Moreover, in assay [2], the Emax was in the range of 25 to 100% and the “M4 Activity” value was “+++ (activity was measured to be less than 1.0 μM)”.
With `CC(=O)N1Cc2ccccc2C2(CCN(CC3CCCCC3)CC2)C1` [compound 35], in assay [1], the maximal effect (Emax) was less than 25% and the “M1 Activity” value was “+ (activity was measured to be greater than 5.0 μM)”. Moreover, in assay [2], the Emax was less than 25% and the “M4 Activity” value was “++ (activity was measured to be from 1.0 μM to 5.0 μM)”.
